From PubChem BioAssay (NCI)
Several values for one entry are separate records, joined by “and”; a condition that tells them apart may be missing. Equal entries are not always repeated.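 How tested: cells in 96-well plates exposed to compound for 48 hours at five concentrations. GI50 is the concentration that inhibits growth by half. TGI is the concentration that stops growth completely.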

What was measured:
Assay in all cases: growth of human tumour cells (NCI), 48 h
UACC-257 melanoma = system: UACC-257 melanoma
M14 melanoma = system: M14 melanoma
LOX IMVI melanoma = system: LOX IMVI melanoma
A498 renal = system: A498 renal
MALME-3M melanoma = system: MALME-3M melanoma
HOP-62 NSCLC = system: HOP-62 NSCLC
HL-60(TB) leukemia = system: HL-60(TB) leukemia
SF-268 CNS = system: SF-268 CNS
T-47D breast = system: T-47D breast
BT-549 breast = system: BT-549 breast

Row | Structure (SMILES) | TGI (UACC-257 melanoma) | TGI (M14 melanoma) | TGI (LOX IMVI melanoma) [µM] | TGI (A498 renal) [µM] | TGI (MALME-3M melanoma) | TGI (HOP-62 NSCLC) | TGI (HL-60(TB) leukemia) [µM] | TGI (SF-268 CNS) [µM] | GI50 (UACC-257 melanoma) | GI50 (M14 melanoma) | GI50 (LOX IMVI melanoma) | GI50 (A498 renal) [µM] | GI50 (MALME-3M melanoma) [µM] | GI50 (HOP-62 NSCLC) | GI50 (HL-60(TB) leukemia) | GI50 (SF-268 CNS) | GI50 (T-47D breast) [µM] | TGI (T-47D breast) [µM] | GI50 (BT-549 breast) [µM] | TGI (BT-549 breast) [µM]
1 | COc1ccc(C[C@]23CCC(=O)N2CCc2cc(OC)c(O)cc23)cc1O | > 100 µM | > 100 µM | > 100 | > 100 | > 100 µM | > 100 µM | > 100 | > 100 |  |  |  |  |  |  |  |  |  |  |  | 
2 | COc1ccccc1NC(=O)C1=C(C)NC(C)=C(C(=O)Nc2ccccc2OC)C1c1ccccc1Cl | > 100 µM | > 100 µM | > 100 | > 100 | > 100 µM | > 100 µM | > 100 | > 100 |  |  |  |  |  |  |  |  |  |  |  | 
3 | O=C(O)CCSC(=O)Nc1cccc2ccccc12 | > 100 µM | > 100 µM | > 100 | > 100 | > 100 µM | > 100 µM |  | > 100 |  |  |  |  |  |  |  |  |  |  |  | 
4 | CC[O-].CC[O-].O=C([CH-]C(=O)c1ccccc1)CCCCCCC(=O)[CH-]C(=O)c1ccccc1.[Ti+4] | > 100 µM | > 100 µM | > 100 | > 100 | > 100 µM | > 100 µM | > 100 | > 100 | > 100 µM | > 100 µM | > 100 µM | > 100 | > 100 | > 100 µM | > 100 µM | > 100 µM |  |  |  | 
5 | O=C(Nc1cccc(C(F)(F)F)c1)c1ccc(NC2=C(Cl)C(=O)N(Cc3ccccc3)C2=O)cc1 | 58 µM | 21.7 µM | 6.6 | 45.7 |  | 25.8 µM | 5.64 | 29.9 | 27.9 µM | 9.26 µM | 2.45 µM | 24.4 |  | 13.1 µM | 2.08 µM | 6.41 µM | 12.4 | 52.7 | 1.25 | 5.49
6 | FC(F)(F)c1cc(NC(=S)N2c3ccccc3-n3cccc3C2c2cccnc2)cc(C(F)(F)F)c1 (stereo not drawn) | 15.7 µM | 28.2 µM |  | 30.3 | 26.9 µM | 21.7 µM | 21.4 | 28.5 | 3.9 µM | 11.3 µM |  | 13.7 |  | 7.23 µM | 3.87 µM | 9.91 µM | 3.89 | 26.2 | 8.96 | 45.7
7 | CN=C1CN=C(OP(=O)(N2CCOCC2)N2CCOCC2)c2cc(Cl)ccc2N1 | > 100 µM | > 100 µM | > 100 | > 100 | > 100 µM |  | > 100 |  |  |  |  |  |  |  |  |  |  |  |  | 
8 | COc1ccc(CNCCCN2C(=O)c3ccc4c5c(ccc(c35)C2=O)C(=O)N(CCCNCc2ccc(OC)c(OC)c2OC)C4=O)c(OC)c1OC | 0.167 µM | 0.162 µM | 0.155 | 1.25 | 0.151 µM | 0.729 µM |  | 0.353 | 0.0921 µM | 0.0855 µM | 0.0795 µM | 0.61 | 0.0765 | 0.171 µM |  | 0.117 µM | 0.0983 | 0.213 | 0.262 | 0.503
9 | COc1ccc(-c2oc3c(OC)c(OC)c(OC)c(O)c3c(=O)c2OC)cc1O | > 100 µM |  |  | 5.93 |  | 0.877 µM and 4.75 µM | < 0.01 | 2.82 | < 0.01 µM | < 0.01 µM |  |  |  | 0.0478 µM |  | < 0.01 µM |  |  |  | 
10 | Cc1ccc(/C=N/NS(=O)(=O)c2ccccc2)cc1C | > 100 µM | > 100 µM | > 100 | > 100 | > 100 µM | > 100 µM | > 100 | > 100 |  |  |  |  |  |  |  |  |  |  |  | 
11 | CC(=O)[CH-]C(C)=O.CC(=O)[CH-]C(C)=O.[Cl-].[O]=[V] |  | 31 µM | 44.5 |  | 27.9 µM |  |  |  |  | 11.4 µM | 14.9 µM |  | 9.76 |  |  |  |  |  |  | 
12 | COc1cccc(C=O)c1[O-].COc1cccc(C=O)c1[O-].[Zn+2] | 99.2 µM | > 100 µM | > 100 | > 100 | > 100 µM | > 100 µM |  | > 100 |  |  |  |  |  |  |  |  |  |  |  | 
13 | CC(=O)OC1=C2CC[C@@H]3C(CC[C@@]4(C)C3CC[C@@H]4OC(C)=O)[C@@]2(C)CC(C#N)C1=O (stereo partly drawn) | > 100 µM | > 100 µM | > 100 | 9.59 | > 100 µM | > 100 µM | 42.6 | > 100 |  |  |  |  |  |  |  |  |  |  |  | 
14 | CS(=O)(=O)NNS(=O)(=O)c1ccc(F)cc1 | > 100 µM | > 100 µM | > 100 | > 100 | > 100 µM | > 100 µM | > 100 | > 100 |  |  |  |  |  |  |  |  |  |  |  | 
15 | CN[C@@H](Cc1cccc2ccccc12)C(=O)N[C@@H](CC(C)C)B(O)O | 0.0337 µM and 0.04 µM | 0.145 µM | 0.0324 | 0.0452 | 0.0336 µM and 0.0214 µM | 0.129 µM and 0.0368 µM |  | 0.0353 | 0.0169 µM and 0.0131 µM |  | 0.0135 µM | 0.00553 | 0.0121 | 0.0371 µM |  | 0.0154 µM | 0.0156 | 0.0372 |  | 0.0243
16 | CCOC(=O)c1c(-c2ccc(OC)c(O)c2)c(C#N)c(=S)n(C2OC(COC(C)=O)C(OC(C)=O)C(OC(C)=O)C2OC(C)=O)c1-c1ccccc1 (stereo not drawn) | 60.8 µM and > 100 µM | 40.6 µM and > 100 µM | > 100 | > 100 | 57 µM | 72.2 µM and > 100 µM | > 100 | > 100 | 23.4 µM and > 100 µM | 18.9 µM and > 100 µM | 34.8 µM and > 100 µM |  |  | 26.5 µM and > 100 µM | 43.5 µM and > 100 µM | 34 µM and > 100 µM |  |  |  | 64
17 | CCOC(=O)Nc1ccc2c(c1)C(=O)N(CC)c1ccccc1O2 | > 100 µM | > 100 µM | > 100 | 11.8 | > 100 µM | > 100 µM | 0.155 | > 100 | 35.6 µM | 0.0617 µM | 0.198 µM | 0.0786 | 31.8 | 0.128 µM | 0.0545 µM | 0.26 µM |  |  | 0.184 | 16.9
18 | CCOC(=O)CNC(=O)OCc1ccccc1 | > 100 µM | > 100 µM | > 100 | > 100 | > 100 µM | > 100 µM | > 100 | > 100 |  |  |  |  |  |  |  |  |  |  |  | 
19 | CO/C=C(\Br)c1ccc2c(c1)OCO2 | > 100 µM | > 100 µM |  | > 100 | > 100 µM | > 100 µM | > 100 | > 100 |  |  |  |  |  |  |  |  |  |  |  | 
